Patent US20110301168A1, “CYCLOALKANE[B]AZAINDOLE ANTAGONISTS OF PROSTAGLANDIN D2 RECEPTORS” (AMIRA PHARMACEUTICALS, INC., priority 2008, published 2011)

target: T1, human DP2 receptor (Homo sapiens, UniProt Q9Y5Y4); assay: DP2/CRTH2 radioligand binding assay using [3H]PGD2; details: membranes of HEK293 cells expressing recombinant human DP2, 1 nM [3H]PGD2; read-out: hDP2
T1 construct: expressed in transfected cells; membrane preparation
T1 sequence (Q9Y5Y4 1-395): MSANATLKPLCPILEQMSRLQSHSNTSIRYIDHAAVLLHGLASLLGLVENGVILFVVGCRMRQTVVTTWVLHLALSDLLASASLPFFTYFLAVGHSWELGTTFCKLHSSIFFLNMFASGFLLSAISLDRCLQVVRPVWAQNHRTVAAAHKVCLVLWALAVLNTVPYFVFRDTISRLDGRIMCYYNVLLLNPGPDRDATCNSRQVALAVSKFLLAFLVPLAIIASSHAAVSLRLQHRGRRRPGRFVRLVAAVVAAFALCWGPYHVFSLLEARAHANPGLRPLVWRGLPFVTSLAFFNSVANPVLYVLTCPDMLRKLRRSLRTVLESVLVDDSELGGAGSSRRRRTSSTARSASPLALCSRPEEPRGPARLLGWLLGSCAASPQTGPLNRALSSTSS
Method: The ability of a compound to bind to the human DP2 receptor is assessed via a radioligand binding assay using [^3H]PGD2. HEK293 cells stably expressing recombinant human DP2 are resuspended in 10 mM Hepes, 7.4 containing 1 mM DTT, lysed and centrifuged at 75,000×g to pellet the membranes. The membranes are resuspended in 10 mM Hepes, 7.4 containing 1 mM DTT and 10% glycerol to approximately 5 mg protein/ml. Membranes (2-10 μg protein/well) are incubated in 96-well plates with 1 nM [^3H]PGD2 and test compound in Assay Buffer (50 mM Hepes, 10 mM MnCl2, 1 mM EDTA, plus or minus 0.2% human serum albumin, pH 7.4) for 60 minutes at room temperature. The reactions are terminated by rapid filtration through Whatman GF/C glass fibre filter plates. The filter plates were pre-soaked in 0.33% polythylenimine for 30 minutes at room temperature then washed in Wash Buffer (50 mM Hepes, 0.5 M NaCl pH 7.4) prior to harvesting. After harvesting, the filter plates are washed 3 times with 1 ml cold Wash Buffer then dried. Scintillant is then added to the plates and the radioactivity retained on the filters is determined on a Packard TopCount (Perkin Elmer). Specific binding is determined as total radioactive binding minus non-specific binding in the presence of 10 μM PGD2. IC50s were determined using GraphPad prism analysis of drug titration curves.

Row | SMILES | IC50 [nM]
1 | CN(C1CCc2c(c3ncccc3n2CC(=O)O)C1)S(=O)(=O)c1ccc(F)cc1 (racemic) [Compound 9, {8-[N-(4-fluoro-benzenesulfonyl)-N-methyl-amino]-6,7,8,9-tetrahydro-pyrido[3,2-b]indol-5-yl}-acetic acid] | < 100
2 | CN([C@@H]1CCc2c(c3ncccc3n2CC(=O)O)C1)S(=O)(=O)c1ccc(F)cc1 (single isomer, unassigned) [Compound 10] | < 100
3 | CN([C@H]1CCc2c(c3ncccc3n2CC(=O)O)C1)S(=O)(=O)c1ccc(F)cc1 (single isomer, unassigned) [Compound 11] | > 100
4 | CN(C1CCc2c(c3cccnc3n2CC(=O)O)C1)S(=O)(=O)c1ccc(F)cc1 (stereo not drawn) [Compound 23, {6-[N-(4-fluoro-benzenesulfonyl)-N-methyl-amino]-7,8-dihydro-5H-pyrido[2,3-b]indol-9(6H)-yl}-acetic acid] | > 100
5 | CN(C1CCc2c(c3nccnc3n2CC(=O)O)C1)S(=O)(=O)c1ccc(F)cc1 (stereo not drawn) [Compound 24, {8-[N-(4-fluoro-benzenesulfonyl)-N-methyl-amino]-6,7,8,9-tetrahydro-5H-pyrazino [2,3-b]indol-5-yl}acetic acid] | > 100

test system: mouse model of allergic rhinitis; assay: Mouse allergic rhinitis model (OVA-induced sneezing and nasal rubbing); assay type: in vivo; details: 10 mg/kg administered as the sodium salt, oral gavage 1 hour prior to OVA challenge; significantly reduced, approximately
Method: The compounds ability to inhibit allergen-induced sneezing and nasal rubbing is assessed using a mouse model of allergic rhinitis. Methods were adapted from those detailed in Nakaya, M., et al. 2006, Laboratory Investigation, 86:917-926. Female BALB/c mice (20-25 g) are immunized by an intraperitoneal injection (i.p.) of 10 μg ovalbumin (OVA) complexed with alum in a volume 0.2 mL on days 0 and 7. Fourteen days later (day 21) mice are challenged intranasally with 20 μl of a 10 mg/mL solution of OVA. The challenge period occurs daily from days 21 to day 23. Mice (5-7/group) are randomly assigned to receive either compound or vehicle and are treated by oral gavage 1 hour prior to OVA challenge. The number of sneezes and nasal rubs are counted by an independent blinded observe during a period of 8 minutes immediately following OVA challenge on days 21, 23 and […]. A significant increase in allergen-induced sneezing and nasal rubbing occurs over the 3-day challenge period. Inhibition of this effect by select compounds is determined statistically using Graphpad prism.

Row | SMILES | reduction of sneezing and nasal rubs versus vehicle-treated mice
6 | CN(C1CCc2c(c3ncccc3n2CC(=O)O)C1)S(=O)(=O)c1ccc(F)cc1 (racemic) [Compound 9, {8-[N-(4-fluoro-benzenesulfonyl)-N-methyl-amino]-6,7,8,9-tetrahydro-pyrido[3,2-b]indol-5-yl}-acetic acid] | 40-50%
